The source of these data is patent US8415351B2 (priority 2007, dated 2013).

SMILES strings stand for the structures. pEC50: −log10 of the molar value.

Test [1] concerns genotype 1a-H77 subgenomic replicon cell line. The test is described as follows: microbe, parasite or virus in culture. The format is cell-based, HCV. The following applies: Hepatitis C virus, read-out: EC50 1a.
Test [2] has as its system genotype 1b-Con1 subgenomic replicon cell line. The test is described as follows: microbe, parasite or virus in culture. It counts as cell-based, HCV. Particulars: Hepatitis C virus, read-out: EC50 1b.

What is called pEC50 is −log10 of the EC50, conventionally taken in molar units. As for `COc1c(-c2ccc3cc(NS(C)(=O)=O)ccc3c2)cc(-n2ccc(=O)[nH]c2=O)cc1-c1cccs1` [IB-L0-2.61, N-(6-(5-(2,4-dioxo-3,4-dihydropyrimidin-1(2H)-yl)-2-methoxy-3-(thiophen-2-yl)phenyl)naphthalen-2-yl)methanesulfonamide], the negative logarithm of the EC50 (pEC50) in test [1] was 6.00 to 7.00; in test [2] it was 7.00 to 8.00.
Regarding `COc1c(/C=C/c2ccc(NS(C)(=O)=O)cc2CN2CCCC2)cc(-n2ccc(=O)[nH]c2=O)cc1C(C)(C)C` [IB-L1-1.33, N-(4-{(E)-2-[3-tert-Butyl-5-(2,4-dioxo-3,4-dihydro-2H-pyrimidin-1-yl)-2-methoxy-phenyl]-vinyl}-3-pyrrolidin-1-ylmethyl-phenyl)-methanesulfonamide], the pEC50 in test [1] is 6.00 to 7.00; in test [2], 7.00 to 8.00.
For `COc1c(/C=C/c2ccc(NS(C)(=O)=O)cc2)cc(N2CCC(=O)NC2=O)cc1C(C)(C)C` [IA-L1-1.9, (E)-N-(4-(3-tert-butyl-5-(2,4-dioxotetrahydropyrimidin-1(2H)-yl)-2-methoxystyryl)phenyl)methanesulfonamide], the results for the negative-log EC50 (pEC50) in test [1] and in test [2] were 7.00 to 8.00 and greater than 8.00, respectively.
For `COc1c(-c2cccc(Cl)c2)cc(-n2ccc(=O)[nH]c2=O)cc1-c1ccc2cc(NS(C)(=O)=O)ccc2c1` [IB-L0-2.74, N-(6-(3′-chloro-5-(2,4-dioxo-3,4-dihydropyrimidin-1(2H)-yl)-2-methoxybiphenyl-3-yl)naphthalen-2-yl)methanesulfonamide] the same measures were less than 6.00 and 6.00 to 7.00.
Regarding `COc1c(-c2ccc3cc(NS(C)(=O)=O)ccc3c2)cc(-n2ccc(=O)[nH]c2=O)cc1-c1ccc(C)s1` [IB-L0-2.73, N-(6-(5-(2,4-dioxo-3,4-dihydropyrimidin-1(2H)-yl)-2-methoxy-3-(5-methylthiophen-2-yl)phenyl)naphthalen-2-yl)methanesulfonamide], the pEC50 in test [1] and in test [2] was 6.00 to 7.00 each time.
Turning to `COc1c(-c2ccoc2)cc(-n2ccc(=O)[nH]c2=O)cc1-c1ccc2cc(NS(C)(=O)=O)ccc2c1` [IB-L0-2.64, N-(6-(5-(2,4-dioxo-3,4-dihydropyrimidin-1(2H)-yl)-3-(furan-3-yl)-2-methoxyphenyl)naphthalen-2-yl)methanesulfonamide], the pEC50 in test [1] was 6.00 to 7.00; in test [2], greater than 8.00.
For `COc1c(NS(C)(=O)=O)cc(-n2ccc(=O)[nH]c2=O)cc1-c1ccc2cc(NS(C)(=O)=O)ccc2c1` [IB-L0-2.75, N-(5-(2,4-dioxo-3,4-dihydropyrimidin-1(2H)-yl)-2-methoxy-3-(6-(methylsulfonamido)naphthalen-2-yl)phenyl)methanesulfonamide] the same measures were less than 6.00 and less than 6.00.
As for `COc1c(/C=C/c2ccc(NS(C)(=O)=O)cc2C(=O)N2CCC2)cc(-n2ccc(=O)[nH]c2=O)cc1C(C)(C)C` [IB-L1-1.22, N-(3-(azetidine-1-carbonyl)-4-{(E)-2-[3-tert-butyl-5-(2,4-dioxo-3,4-dihydro-2H-pyrimidin-1-yl)-2-methoxy-phenyl]-vinyl}-phenyl)-methanesulfonamide], the figures for the negative-log EC50 (pEC50) in test [1] and in test [2] were 7.00 to 8.00 and greater than 8.00, respectively.
Consider `COc1c(/C=C/c2ccc(NS(C)(=O)=O)cc2C(=O)N(C)C)cc(-n2ccc(=O)[nH]c2=O)cc1C(C)(C)C` [IB-L1-1.14, 2-{(E)-2-[3-tert-Butyl-5-(2,4-dioxo-3,4-dihydro-2H-pyrimidin-1-yl)-2-methoxy-phenyl]-vinyl}-5-methanesulfonylamino-N,N-dimethyl-benzamide], for which the pEC50 was 7.00 to 8.00 in test [1] and greater than 8.00 in test [2].
For `COc1c(-c2ccc3c(c2)CNC3=O)cc(-n2ccc(=O)[nH]c2=O)cc1C(C)(C)C` [IB-L0-2.30, 1-(3-tert-butyl-4-methoxy-5-(1-oxoisoindolin-5-yl)phenyl)-pyrimidine-2,4(1H,3H)-dione], the pEC50 in test [1] is 6.00 to 7.00; in test [2] it was 7.00 to 8.00.
With `COc1c(/C=C/c2ccc(NS(C)(=O)=O)cc2CN2CC(O)C2)cc(-n2ccc(=O)[nH]c2=O)cc1C(C)(C)C` [IB-L1-1.29, N-[4-{(E)-2-[3-tert-butyl-5-(2,4-dioxo-3,4-dihydro-2H-pyrimidin-1-yl)-2-methoxy-phenyl]-vinyl}-3-(3-hydroxy-azetidin-1-ylmethyl)-phenyl]-methanesulfonamide], the negative-log EC50 (pEC50) in test [1] and in test [2] was 6.00 to 7.00 in each case.
Turning to `COc1c(/C=C/c2ccc(NS(C)(=O)=O)cc2)cc(-n2ccc(=O)[nH]c2=O)cc1-c1ccco1` [IB-L1-1.46, (E)-N-(4-(5-(2,4-dioxo-3,4-dihydropyrimidin-1(2H)-yl)-3-(furan-2-yl)-2-methoxystyryl)phenyl)methanesulfonamide], the pEC50 in test [1] was 6.00 to 7.00; in test [2], greater than 8.00.
Turning to `COc1c(I)cc(-n2ccc(=O)[nH]c2=O)cc1/C=C/c1ccc(NS(C)(=O)=O)cc1` [IB-L1-1.51, (E)-N-(4-(5-(2,4-dioxo-3,4-dihydropyrimidin-1(2H)-yl)-3-iodo-2-methoxystyryl)phenyl)methanesulfonamide], the negative-log EC50 (pEC50) in test [1] was less than 6.00; in test [2], 7.00 to 8.00.
For `COc1c(/C=C/c2ccc(NS(C)(=O)=O)cc2)cc(-n2ccc(=O)[nH]c2=O)cc1C(C)(C)C` [IB-L1-1.1, (E)-N-(4-(3-tert-butyl-5-(2,4-dioxo-3,4-dihydropyrimidin-1(2H)-yl)-2-methoxystyryl)phenyl)methanesulfonamide] the same measures were greater than 8.00 and greater than 8.00.
With `CO/N=C/c1cc(NS(C)(=O)=O)ccc1/C=C/c1cc(-n2ccc(=O)[nH]c2=O)cc(C(C)(C)C)c1OC` [IB-L1-1.19], the pEC50 in test [1] is 7.00 to 8.00; in test [2] it was greater than 8.00.
Taken in the same sequence, the figures for `COc1c(-c2ccc3c(c2)CC=C3C(C)(C)NS(C)(=O)=O)cc(-n2ccc(=O)[nH]c2=O)cc1C(C)(C)C` [IB-L0-2.41, N-(2-(6-(3-tert-butyl-5-(2,4-dioxo-3,4-dihydropyrimidin-1(2H)-yl)-2-methoxyphenyl)-1H-inden-3-yl)propan-2-yl)methanesulfonamide] were 6.00 to 7.00 and 6.00 to 7.00.
Taken in the same sequence, the figures for `COc1c(/C=C\c2ccc(NS(C)(=O)=O)cc2)cc(-n2ccc(=O)[nH]c2=O)cc1C(C)(C)C` [IB-L1-1.34, N-(4-{(Z)-2-[3-tert-Butyl-5-(2,4-dioxo-3,4-dihydro-2H-pyrimidin-1-yl)-2-methoxy-phenyl]-vinyl}-phenyl)-methanesulfonamide] were 7.00 to 8.00 and greater than 8.00.
For `CC(C)(C)c1cc(/C=C/c2ccc(NS(C)(=O)=O)cc2)cc(N2CCC(=O)NC2=O)c1` [IA-L1-1.16, (E)-N-(4-(3-tert-butyl-5-(2,4-dioxotetrahydropyrimidin-1(2H)-yl)styryl)phenyl)methanesulfonamide], the pEC50 in test [1] and in test [2] was 7.00 to 8.00 in each case.
As for `COc1c(-c2ccc3c(c2)CC[C@@]3(F)CNS(C)(=O)=O)cc(-n2ccc(=O)[nH]c2=O)cc1C(C)(C)C` [IB-L0-2.20, (S)—N-((5-(3-tert-butyl-5-(2,4-dioxo-3,4-dihydropyrimidin-1(2H)-yl)-2-methoxyphenyl)-1-fluoro-2,3-dihydro-1H-inden-1-yl)methyl)methanesulfonamide], the pEC50 in test [1] was 6.00 to 7.00; in test [2], 7.00 to 8.00.
For `COc1c(/C=C/c2ccc(NS(C)(=O)=O)cc2C(=O)N2CCOCC2)cc(-n2ccc(=O)[nH]c2=O)cc1C(C)(C)C` [IB-L1-1.23, (E)-N-(4-(3-tert-butyl-5-(2,4-dioxo-3,4-dihydropyrimidin-1(2H)-yl)-2-methoxystyryl)-3-(morpholine-4-carbonyl)phenyl)methanesulfonamide], the pEC50 in test [1] was 6.00 to 7.00; in test [2] it was greater than 8.00.
Regarding `COCCNC(=O)c1cc(NS(C)(=O)=O)ccc1/C=C/c1cc(-n2ccc(=O)[nH]c2=O)cc(C(C)(C)C)c1OC` [IB-L1-1.9, 2-{(E)-2-[3-tert-Butyl-5-(2,4-dioxo-3,4-dihydro-2H-pyrimidin-1-yl)-2-methoxy-phenyl]-vinyl}-5-methanesulfonylamino-N-(2-methoxy-ethyl)-benzamide], the results for the pEC50 in test [1] and in test [2] were 7.00 to 8.00 and greater than 8.00, respectively.
Regarding `COc1c(N2CCc3cc(NS(C)(=O)=O)ccc3C2)cc(-n2ccc(=O)[nH]c2=O)cc1C(C)(C)C` [IB-L0-2.19, N-(2-(3-tert-butyl-5-(2,4-dioxo-3,4-dihydropyrimidin-1(2H)-yl)-2-methoxyphenyl)-1,2,3,4-tetrahydroisoquinolin-6-yl)methanesulfonamide], the pEC50 in test [1] and in test [2] was 7.00 to 8.00 each time.
Take `COc1c(/C=C/c2ccc(NS(C)(=O)=O)cc2)cc(-n2ccc(=O)[nH]c2=O)cc1-c1ccoc1` [IB-L1-1.50, (E)-N-(4-(5-(2,4-dioxo-3,4-dihydropyrimidin-1(2H)-yl)-3-(furan-3-yl)-2-methoxystyryl)phenyl)methanesulfonamide]: the pEC50 in test [1] was 6.00 to 7.00; in test [2], 7.00 to 8.00.
For the compound `COc1c(/C=C/c2ccc(N)cc2)cc(N2CCC(=O)NC2=O)cc1C(C)(C)C` [IA-L1-1.13, (E)-1-(3-(4-aminostyryl)-5-tert-butyl-4-methoxyphenyl)dihydropyrimidine-2,4(1H,3H)-dione], the pEC50 in test [1] is less than 6.00; in test [2], 6.00 to 7.00.
As for `COc1c(/C=C/c2ccc(NS(C)(=O)=O)cc2CO)cc(-n2ccc(=O)[nH]c2=O)cc1C(C)(C)C` [IB-L1-1.10, (E)-N-(4-(3-tert-butyl-5-(2,4-dioxo-3,4-dihydropyrimidin-1(2H)-yl)-2-methoxystyryl)-3-(hydroxymethyl)phenyl)methanesulfonamide], the pEC50 in test [1] and in test [2] was greater than 8.00 throughout.
Turning to `COc1c(-c2ccc3nc(NS(C)(=O)=O)cnc3c2)cc(-n2ccc(=O)[nH]c2=O)cc1C(C)(C)C` [IB-L0-2.26, N-(6-(3-tert-butyl-5-(2,4-dioxo-3,4-dihydropyrimidin-1(2H)-yl)-2-methoxyphenyl)quinoxalin-2-yl)methanesulfonamide], the negative-log EC50 (pEC50) in test [1] was less than 6.00; in test [2] it was 6.00 to 7.00.
Regarding `COc1c(-c2nc3cc(NS(C)(=O)=O)ccc3o2)cc(N2CCC(=O)NC2=O)cc1C(C)(C)C` [IA-L0-2.8, N-(2-(3-tert-butyl-5-(2,4-dioxotetrahydropyrimidin-1(2H)-yl)-2-methoxyphenyl)benzo[d]oxazol-5-yl)methanesulfonamide], the figures for the negative-log EC50 (pEC50) in test [1] and in test [2] were 6.00 to 7.00 and 7.00 to 8.00, respectively.
